In the NIST ThermoML archive (doi:10.1021/je700260f):

Settings: 283.15 K, Liquid, Vibrating tube method

FC(C(F)(F)F)C(F)(F)F [1,1,1,2,3,3,3-heptafluoropropane]
Settings | mass density [kg/m3]
10458 kPa | 1500.1
10488 kPa | 1500.2
10528 kPa | 1500.3
10559 kPa | 1500.4
10588 kPa | 1500.6
10774 kPa | 1501.4
10816 kPa | 1501.5
10838 kPa | 1501.7
10868 kPa | 1501.8
10899 kPa | 1502
10925 kPa | 1502.1
10959 kPa | 1502.2
10981 kPa | 1502.4
11024 kPa | 1502.5
11055 kPa | 1502.6
12114 kPa | 1507
12149 kPa | 1507.1
12177 kPa | 1507.2
12214 kPa | 1507.4
12245 kPa | 1507.6
12281 kPa | 1507.6
12311 kPa | 1507.7
12342 kPa | 1507.9
12373 kPa | 1508
12405 kPa | 1508.2
12437 kPa | 1508.3
12476 kPa | 1508.3
12508 kPa | 1508.5
12544 kPa | 1508.6
12576 kPa | 1508.7
12608 kPa | 1509
12641 kPa | 1509.1
12677 kPa | 1509.2
12709 kPa | 1509.4
12748 kPa | 1509.5
12780 kPa | 1509.7
13258 kPa | 1511.5
13353 kPa | 1512
14612 kPa | 1516.6
14643 kPa | 1516.8
14673 kPa | 1516.9
14713 kPa | 1517.2
14739 kPa | 1517.4
14769 kPa | 1517.4
14799 kPa | 1517.6
14834 kPa | 1517.7
14886 kPa | 1517.8
14927 kPa | 1517.9
14957 kPa | 1518.1
14998 kPa | 1518.3
15045 kPa | 1518.4
15086 kPa | 1518.5
15117 kPa | 1518.8
15153 kPa | 1518.8
15184 kPa | 1518.9
15215 kPa | 1519.2
15256 kPa | 1519.2
15287 kPa | 1519.4
15328 kPa | 1519.4
15365 kPa | 1519.5
15400 kPa | 1519.8
15442 kPa | 1519.9
15474 kPa | 1520
15505 kPa | 1520
15536 kPa | 1520.4
15572 kPa | 1520.5
15607 kPa | 1520.5
15643 kPa | 1520.7
15673 kPa | 1520.8
15714 kPa | 1521
16087 kPa | 1522.4
16114 kPa | 1522.4
16151 kPa | 1522.5
16175 kPa | 1522.7
16606 kPa | 1524.3
16678 kPa | 1524.6
16711 kPa | 1524.5
17447 kPa | 1527.3
17481 kPa | 1527.3
17515 kPa | 1527.4
17545 kPa | 1527.7
17593 kPa | 1527.7
18341 kPa | 1530.5
18418 kPa | 1530.6
18457 kPa | 1530.8
18487 kPa | 1530.8
18526 kPa | 1531.1
18571 kPa | 1531.1
19435 kPa | 1534.2
19479 kPa | 1534.3
19508 kPa | 1534.3
19536 kPa | 1534.5
19574 kPa | 1534.6
19602 kPa | 1534.7
19640 kPa | 1534.9
19673 kPa | 1535
19706 kPa | 1535.1
19739 kPa | 1535.3
19785 kPa | 1535.4
19809 kPa | 1535.4
19854 kPa | 1535.6
19878 kPa | 1535.6
